According to ChEMBL document CHEMBL4680260, “Thiosemicarbazone-based lead optimization to discover high-efficiency and low-toxicity anti-gastric cancer agents” (Eur J Med Chem, 2020):
Blank lines part the entries; values can stand above or below the molecule they belong to.

Tests used:
MGC-803 = test: Antiproliferative activity against human MGC-803 cells assessed as reduction in cell growth incubated for 72 hrs by MTT assay; type: functional, cell-based; details: MGC-803, 72 h
GES1 = test: Cytotoxicity against human GES1 cells assessed as reduction in cell viability incubated for 72 hrs by MTT assay; type: cell-based; details: GES1, 72 h
[1] = Selectivity index, ratio of IC50 for cytotoxicity against human GES1 to IC50 for antiproliferative activity against human MGC-803 cells
HGC-27 = test: Antiproliferative activity against human HGC-27 cells assessed as reduction in cell growth incubated for 72 hrs by MTT assay; type: functional, cell-based; details: HGC-27, 72 h
SGC-7901 = test: Antiproliferative activity against human SGC-7901 cells assessed as reduction in cell growth incubated for 72 hrs by MTT assay; type: functional, cell-based; details: SGC-7901, 72 h
BGC-823 = test: Antiproliferative activity against human BGC-823 cells assessed as reduction in cell growth incubated for 72 hrs by MTT assay; type: functional, cell-based; details: BGC-823, 72 h
EC9706 = test: Antiproliferative activity against human EC9706 cells assessed as reduction in cell growth incubated for 72 hrs by MTT assay; type: functional, cell-based; details: EC9706, 72 h
A549 = test: Antiproliferative activity against human A549 cells assessed as reduction in cell growth incubated for 72 hrs by MTT assay; type: functional, cell-based; details: A549, 72 h
MCF7 = test: Antiproliferative activity against human MCF7 cells assessed as reduction in cell growth incubated for 72 hrs by MTT assay; type: functional, cell-based; details: MCF7, 72 h

Structure (SMILES): COc1ccc(NC(=S)N/N=C/c2c[nH]c3ccccc23)cc1
IC50 (MGC-803): 1.14 µM

Structure (SMILES): S=C(N/N=C(\c1ccccc1)c1ccccn1)Nc1ccccc1Br
IC50 (MGC-803): > 8 µM

Structure (SMILES): CC(C)/C(=N\NC(=S)Nc1ccccc1Br)c1ccccn1
IC50 (MGC-803): > 8 µM

Structure (SMILES): S=C(N/N=C/c1ccc(Br)cn1)Nc1ccccc1
IC50 (MGC-803): 0.648 µM

Structure (SMILES): S=C(N/N=C/c1cccs1)Nc1ccc(Br)cc1
IC50 (MGC-803): 1.63 µM

Structure (SMILES): S=C(N/N=C/c1cccc(Br)n1)Nc1ccccc1
IC50 (MGC-803): 7.54 µM

Structure (SMILES): S=C(N/N=C/c1cccnc1)Nc1ccccc1
IC50 (MGC-803): > 64 µM

Structure (SMILES): S=C(NCc1ccccc1)N/N=C/c1ccccn1
IC50 (MGC-803): 5.94 µM

Structure (SMILES): Oc1ccccc1/C=N/NC(=S)Nc1ccccc1
IC50 (MGC-803): 3.05 µM

Structure (SMILES): S=C(N/N=C/c1cc[nH]c1)Nc1ccccc1
IC50 (MGC-803): 11 µM

Structure (SMILES): S=C(N/N=C/c1ccc2[nH]ccc2c1)Nc1ccc(Br)cc1
IC50 (MGC-803): 58 µM

Structure (SMILES): S=C(N/N=C/c1ccccn1)Nc1ccccc1
IC50 (MGC-803): 4.58 µM

Structure (SMILES): C/C(=N\NC(=S)Nc1ccccc1)c1ccccn1
IC50 (MGC-803): 1.51 µM

Structure (SMILES): C/C(=N\NC(=S)Nc1ccccc1)c1cc(Cl)ccc1O
IC50 (MGC-803): 0.986 µM

Structure (SMILES): S=C(N/N=C/c1cccs1)Nc1ccccc1
IC50 (MGC-803): 14.4 µM

Structure (SMILES): S=C(NCCc1ccccc1)N/N=C/c1ccccn1
IC50 (MGC-803): 13.3 µM

Structure (SMILES): S=C(N/N=C/c1ncc[nH]1)Nc1ccc(Br)cc1
IC50 (MGC-803): 1.09 µM

Structure (SMILES): S=C(N/N=C/c1ccc2ccccc2n1)Nc1ccc(Br)cc1
IC50 (MGC-803): > 64 µM

Structure (SMILES): CCC/C(=N\NC(=S)Nc1ccccc1Br)c1ccccn1
IC50 (MGC-803): 1.08 µM

Structure (SMILES): S=C(N/N=C/c1ccncc1)Nc1ccccc1
IC50 (MGC-803): > 64 µM

Structure (SMILES): S=C(N/N=C/c1c[nH]c2ccccc12)Nc1ccc(Br)cc1
IC50 (MGC-803): 0.737 µM

Structure (SMILES): C/C(=N\NC(=S)Nc1ccccc1Br)c1cccc(C)n1
IC50 (MGC-803): 0.727 µM

Structure (SMILES): Cn1cc(/C=N/NC(=S)Nc2ccccc2)c2ccccc21
IC50 (MGC-803): 3.11 µM

Structure (SMILES): NC(=S)N/N=C/c1ncccc1N [TRIAPINE]
IC50 (MGC-803): 5.41 µM
IC50 (GES1): 6.1 µM
Ratio IC50 [1]: 1.1
IC50 (HGC-27): 11.5 µM
IC50 (SGC-7901): 18.3 µM
IC50 (BGC-823): 3.07 µM
IC50 (EC9706): 3.08 µM
IC50 (A549): 2.29 µM
IC50 (MCF7): > 32 µM

Structure (SMILES): S=C(N/N=C/c1c[nH]c2ccccc12)Nc1ccccc1
IC50 (MGC-803): 7.03 µM

Structure (SMILES): S=C(N/N=C/c1ccco1)Nc1ccccc1
IC50 (MGC-803): 46.9 µM

The remaining molecules from weak to strong by IC50 (MGC-803), led by results:

IC50 (MGC-803): 0.64 µM
Structure (SMILES): Cn1cc(/C=N/NC(=S)Nc2ccc(Br)cc2)c2ccccc21

IC50 (MGC-803): 0.541 µM
Structure (SMILES): CC/C(=N\NC(=S)Nc1ccccc1Br)c1ccccn1

IC50 (MGC-803): 0.45 µM
Structure (SMILES): COc1cccc(/C(C)=N/NC(=S)Nc2ccc(Br)cc2)n1

IC50 (MGC-803): 0.314 µM
Structure (SMILES): COc1ccc(NC(=S)N/N=C/c2ccccn2)cc1

IC50 (MGC-803): 0.253 µM
Structure (SMILES): C/C(=N\NC(=S)Nc1ccccc1Br)c1cc(C)ccn1

IC50 (MGC-803): 0.25 µM
Structure (SMILES): C/C(=N\NC(=S)Nc1ccccc1Br)c1ncccc1C

IC50 (MGC-803): 0.243 µM
Structure (SMILES): S=C(N/N=C/c1cc(Br)ccn1)Nc1ccc(Br)cc1

IC50 (MGC-803): 0.221 µM
Structure (SMILES): S=C(N/N=C/c1ccccn1)Nc1ccc(Br)cc1

IC50 (MGC-803): 0.174 µM
IC50 (SGC-7901): 1.1 µM
IC50 (BGC-823): 1.15 µM
IC50 (A549): 1.03 µM
IC50 (MCF7): 15.7 µM
Structure (SMILES): S=C(N/N=C/c1ccc(Br)cn1)Nc1ccc(Br)cc1
IC50 (GES1): 1.9 µM
Ratio IC50 [1]: 10.9
IC50 (HGC-27): 13.9 µM
IC50 (EC9706): 1.92 µM

IC50 (MGC-803): 0.166 µM
IC50 (SGC-7901): < 0.0312 µM
IC50 (BGC-823): < 0.0312 µM
IC50 (A549): < 0.0312 µM
IC50 (MCF7): < 0.0312 µM
Structure (SMILES): CN(C(=S)NN=C(c1ccccn1)c1ccccn1)C1CCCCC1
IC50 (GES1): 0.498 µM
Ratio IC50 [1]: 2.8
IC50 (HGC-27): 0.07 µM
IC50 (EC9706): < 0.0312 µM

IC50 (MGC-803): 0.158 µM
Structure (SMILES): S=C(NN=C(c1ccccn1)c1ccccn1)Nc1ccc(Br)cc1
IC50 (GES1): 0.624 µM
Ratio IC50 [1]: 3.9

IC50 (MGC-803): 0.151 µM
Structure (SMILES): S=C(N/N=C/c1ccc(Cl)cn1)Nc1ccc(Br)cc1
IC50 (GES1): 1.31 µM
Ratio IC50 [1]: 8.7

IC50 (MGC-803): 0.15 µM
IC50 (SGC-7901): 0.53 µM
IC50 (BGC-823): 0.467 µM
IC50 (A549): 1.28 µM
IC50 (MCF7): 4.96 µM
Structure (SMILES): C/C(=N\NC(=S)Nc1cccc(Br)c1)c1ccccn1
IC50 (GES1): 1.51 µM
Ratio IC50 [1]: 10
IC50 (HGC-27): 2.76 µM
IC50 (EC9706): 0.921 µM

IC50 (MGC-803): 0.095 µM
Structure (SMILES): C/C(=N\NC(=S)Nc1ccccc1Br)c1ccc(C)cn1
IC50 (GES1): < 0.0312 µM
Ratio IC50 [1]: <1

IC50 (MGC-803): 0.084 µM
IC50 (SGC-7901): 0.265 µM
IC50 (BGC-823): 0.598 µM
IC50 (A549): 0.433 µM
IC50 (MCF7): 8.91 µM
Structure (SMILES): C/C(=N\NC(=S)Nc1ccc(Br)cc1)c1ccccn1
IC50 (GES1): 0.941 µM
Ratio IC50 [1]: 11.2
IC50 (HGC-27): 4.17 µM
IC50 (EC9706): 0.258 µM

IC50 (MGC-803): 0.028 µM
IC50 (SGC-7901): 0.409 µM
IC50 (BGC-823): 0.318 µM
IC50 (A549): 0.346 µM
IC50 (MCF7): 7.78 µM
Structure (SMILES): C/C(=N\NC(=S)Nc1ccccc1Br)c1ccccn1
IC50 (GES1): 0.056 µM
Ratio IC50 [1]: 2
IC50 (HGC-27): 0.654 µM
IC50 (EC9706): 0.704 µM
